In ChEMBL document CHEMBL1132043, “4-N-linked-heterocyclic piperidine derivatives with high affinity and selectivity for human dopamine D4 receptors” (Bioorg Med Chem Lett, 1999):

Columns and labels:
Assay in all cases: biochemical
D(4) dopamine receptor = biological target: T1, D(4) dopamine receptor (Homo sapiens, UniProt P21917)
T1 sequence (P21917 whole entry): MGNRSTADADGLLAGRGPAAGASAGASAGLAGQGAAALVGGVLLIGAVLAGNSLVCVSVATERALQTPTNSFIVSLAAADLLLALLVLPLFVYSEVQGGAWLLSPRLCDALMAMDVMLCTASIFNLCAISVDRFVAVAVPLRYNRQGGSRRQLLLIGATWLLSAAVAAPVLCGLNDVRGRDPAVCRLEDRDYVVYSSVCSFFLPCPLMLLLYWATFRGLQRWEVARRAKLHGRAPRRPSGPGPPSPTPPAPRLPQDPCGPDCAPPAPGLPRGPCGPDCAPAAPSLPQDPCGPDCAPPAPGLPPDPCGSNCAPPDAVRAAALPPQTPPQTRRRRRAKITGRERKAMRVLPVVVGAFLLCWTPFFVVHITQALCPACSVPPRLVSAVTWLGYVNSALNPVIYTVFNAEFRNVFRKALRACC
Description: Displacement of [3H]spiperone from human Dopamine receptor D4 expressed in HEK293 cells

D(3) dopamine receptor = D(3) dopamine receptor (Homo sapiens, UniProt P35462)
Description: Displacement of [3H]spiperone from human Dopamine receptor D3 expressed in HEK293 cells

D(2) dopamine receptor = D(2) dopamine receptor (Homo sapiens, UniProt P14416)
Sequence of D(2) dopamine receptor (P14416 whole entry): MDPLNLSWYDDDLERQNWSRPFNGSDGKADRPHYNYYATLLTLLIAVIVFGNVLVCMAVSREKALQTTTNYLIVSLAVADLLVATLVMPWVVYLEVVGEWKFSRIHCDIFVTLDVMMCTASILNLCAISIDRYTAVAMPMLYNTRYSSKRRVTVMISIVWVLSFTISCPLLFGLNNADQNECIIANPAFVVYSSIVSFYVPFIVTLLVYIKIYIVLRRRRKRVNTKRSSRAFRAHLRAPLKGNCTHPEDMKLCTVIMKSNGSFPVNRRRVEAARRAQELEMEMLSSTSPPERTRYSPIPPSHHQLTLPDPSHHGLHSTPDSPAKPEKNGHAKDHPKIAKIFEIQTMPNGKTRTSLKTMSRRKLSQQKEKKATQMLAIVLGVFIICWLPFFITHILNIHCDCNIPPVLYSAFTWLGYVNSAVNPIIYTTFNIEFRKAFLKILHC
Description: Displacement of [3H]spiperone from human Dopamine receptor D2 expressed in CHO cells

Sequence of D(3) dopamine receptor (P35462 whole entry): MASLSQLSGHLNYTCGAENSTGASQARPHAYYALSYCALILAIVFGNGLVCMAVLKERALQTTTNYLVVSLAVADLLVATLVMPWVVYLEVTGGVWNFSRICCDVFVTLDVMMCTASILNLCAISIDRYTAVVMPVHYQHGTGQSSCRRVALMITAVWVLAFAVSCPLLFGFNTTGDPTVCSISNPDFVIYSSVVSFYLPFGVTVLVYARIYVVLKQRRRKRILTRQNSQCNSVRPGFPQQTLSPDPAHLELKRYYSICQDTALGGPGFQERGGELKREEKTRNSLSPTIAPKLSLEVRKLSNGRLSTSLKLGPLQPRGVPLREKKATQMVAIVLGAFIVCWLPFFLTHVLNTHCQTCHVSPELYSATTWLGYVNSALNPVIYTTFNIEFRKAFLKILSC

Ki (D(4) dopamine receptor) | Ki (D(3) dopamine receptor) | Ki (D(2) dopamine receptor) | Structure (SMILES)
40 nM | 740 nM | 450 nM | c1ccc(CN2CCC(n3cnc(-c4ccccc4)c3)CC2)cc1
18 nM | 2200 nM | 1200 nM | Cc1nnn(C2CCN(Cc3ccccc3)CC2)c1-c1ccccc1
1200 nM | > 4400 nM | > 1800 nM | c1ccc(CN2CCC(n3nnnc3-c3ccccc3)CC2)cc1
5.2 nM | 4400 nM | > 1700 nM | Cc1c(-c2ccccc2)cnn1C1CCN(Cc2cccc(C#N)c2)CC1
15 nM | 810 nM | 510 nM | c1ccc(CN2CCC(n3nccc3-c3ccccc3)CC2)cc1
3.1 nM | 820 nM | 370 nM | Cc1c(-c2ccccc2)cnn1C1CCN(Cc2cccc(Cl)c2)CC1
17 nM | 2500 nM | 1600 nM | Cc1c(-c2ccccc2)nnn1C1CCN(Cc2ccccc2)CC1
1.2 nM | 260 nM | 15 nM | Cc1nn(C2CCN(Cc3cccc(C#N)c3)CC2)cc1-c1ccccc1
27 nM | 1400 nM | 1100 nM | c1ccc(CN2CCC(n3nnc(-c4ccccc4)n3)CC2)cc1
3.1 nM | 120 nM | 15 nM | Cc1nn(C2CCN(Cc3cccc(Cl)c3)CC2)cc1-c1ccccc1
0.39 nM | 28 nM | 6.1 nM | Cc1nn(C2CCN(Cc3ccccc3)CC2)cc1-c1ccccc1
32 nM | 1300 nM | 460 nM | c1ccc(CN2CCC(n3cc(-c4ccccc4)nn3)CC2)cc1
4.7 nM | 450 nM | 90 nM | Cc1c(-c2ccccc2)n[nH]c1C1CCN(Cc2ccccc2)CC1
140 nM | 3000 nM | 310 nM | Cc1cc(-c2ccccc2)n(C2CCN(Cc3ccccc3)CC2)n1
2.5 nM | 450 nM | 140 nM | Cc1c(-c2ccccc2)cnn1C1CCN(Cc2ccccc2)CC1
